The text below walks through data of patent publication US10604476B2, “Fluorinated amide derivatives and their uses as therapeutic agents” (Trillium Therapeutics Inc., priority 2015, dated 2020).

Data set [1] deals with maximal electroshock seizure. The data set is described as follows: Maximal Electroshock Seizure (MES) rat model. The settings on record: po, 0.5 hour. The format is in vivo. As for the experimental part: Male, Sprague-Dawley rats and CD-1 mice were used for all studies. All animals were allowed ad-lib access to food and water except during experiment. Animals were housed within an animal vivarium maintained under a 12 h light:dark cycle (lights on: 07:00 h), and all experiments were conducted in the animals light phase. For all experiments, animals were habituated to the vivarium for a minimum of 72 h before experimentation. The experimental procedures used in the present investigation were conducted under the Association for Assessment and Accreditation of Laboratory Animal Care (AAALAC) and the Canadian Council on Animal Care (CCAC) guidelines. All compounds were sonicated in 5% Tween 80® in saline or methylcellulose 0.5% (wgt/vol), using MC and sterile water and injected in a dose volume of 5 ml/kg or 10 ml/kg (rat), and 10 ml/kg (mouse). Drugs were administered by either the oral, intraperitoneal or intravenous route. Male Sprague-Dawley rats of body weight 80-100 g were used for these studies. Each experiment was conducted over 3 consecutive days. On day 1 and 2, each rat received a single electrical stimulus (150 mA, 0.2 s duration, 60 Hz) via corneal electrodes moistened with saline (Shock stimulator type 221: Harvard apparatus). […] Typically this reflected approximately 70-90% of the initial group. […] On the test day following a defined drug pretreatment period, rats received a maximal electroshock (150 mA, 0.2 s duration, 60 Hz) via corneal electrodes. Protection was defined as absence of a full tonic seizure within 10 s of stimulus delivery. Twenty minutes before the MES procedure, the animals were tested on a fixed speed rotorod (best score from 3 trials at 8 r.p.m, trial duration=60 s) to give an early assessment of drug effect on gross motor function.
(The maximal electroshock test induces tonic seizures with an electrical stimulus.)

The subject of data set [2] is gross motor function. The data set is described as follows: Fixed speed rotorod, rat (gross motor function). The following applies: Sprague-Dawley, in vivo, po. As for the experimental part:
On the test day following a defined drug pretreatment period, rats received a maximal electroshock (150 mA, 0.2 s duration, 60 Hz) via corneal electrodes. Protection was defined as absence of a full tonic seizure within 10 s of stimulus delivery. Twenty minutes before the MES procedure, the animals were tested on a fixed speed rotorod (best score from 3 trials at 8 r.p.m, trial duration=60 s) to give an early assessment of drug effect on gross motor function.
In general terms: Falling from the rotarod earlier than controls is read as motor impairment.

Data set [3] has as its system gross motor function. The data set is described as follows: Rotorod, mouse (Table 8). The settings on record: in vivo, po, Table 8, mouse.
The test system of data set [4] is fully kindled (stage 5) seizures, hippocampal kindled rat. In words: Hippocampal kindled rat model (focal seizures). The format is in vivo. The settings on record: for suppression of fully kindled (stage 5) seizures compared to vehicle controls: <100 mg/kg i.p. From the text:
Hippocampal Kindled Rat Test is designed to quantify the anti-convulsant effects of a test compound in the kindled rat model. Rats treated by i.p. injection.
The Kindled Rat is a model of temporal lobe epilepsy, which is the most common and drug-resistant type of adult focal epilepsy (Morimoto et al., 2004). […] This acquired hyper-responsiveness is called kindling and results not only in increased seizure responses but also in an elongation of the after-discharge duration seen on an EEC recording.
Electrodes are implanted into the hippocampus of anesthetized rats, which are then allowed to recover for one week. Following the rapid kindling protocol (Lothman and Williamson, Brain Res 1994, 649:71-84), the rats are stimulated with 200 jiA for 10 s, 50 Hz, every 30 minutes for six hours on alternate days until they are fully kindled (4-5 stimulus days). After one week of rest, the animals are given the same electrical stimulus which serves as a baseline. The animals are pretreated with the test compound (generally via i.p. injection) and then tested at various intervals. At each time point, the behavioral seizure score (BSS) and after-discharge duration (ADD) is recorded. The BSS's are scored according to the following criteria (Racine, Electroencephalogr Clin Neurophysiol 1972, 32:281-94): Stage 1—mouth and facial clonus; Stage 2—stage 1 plus head nodding; Stage 3—stage 2 plus forelimb clonus; Stage 4—stage 3 plus rearing; and Stage 5—stage 4 plus repeated rearing and falling.
The after discharge threshold (ADT) can also be measured in the kindled rat. The ADT is defined as the lowest current at which an after discharge of at least 4 s is elicited. […] The initial stimulation is conducted at an intensity of 20 uA with 10 uA increments every 1-2 min until an after discharge is elicited. Fifteen minutes after the pre-drug threshold determination, a single dose of the test substance is administered to two animals in a volume of 0.04 ml/10 g body weight. In this way the animals serves as its own control. The individual rat ADT is then determined at varying times (i.e., 0.25, 1, 2, and 4 hr) after drug administration.
Ability of a compound to block behavioral seizures and/or decrease the afterdischarge duration (ADD) in a hippocampal kindled rat model. The hippocampal kindled rat provides an experimental model of focal seizures that become secondarily generalized. This rat model is useful for not only identifying compounds effective against partial seizures, but also allows for the investigation of complex brain networks that may contribute to seizure spread and generalization from a focus. Moreover, of the various electrical kindling paradigms described in the literature, the hippocampal kindling model offers several distinct advantages for the routine screening and evaluation of potential anticonvulsant compounds. First, this model provides a temporal framework for assessing drug efficacy in a focal seizure model. Specifically, the refractory period of individual animals is sufficiently short to permit repeated stimulations over a short time span. Second, this kindled rat model can be employed to assess the ability of an investigational compound to block fully kindled seizures evoked by an electrical stimulus. Finally, the hippocampal kindled rat model can also be used to assess the ability of an investigational compound to elevate threshold to focal firing modulation by an investigational drug. Therefore, compounds with a subtle effect on focal seizure activity in the kindled rat are not likely to be overlooked in the threshold test, thereby making the hippocampal kindled rat a useful screen at the ETSP.
Animals are first surgically prepared for kindling acquisition. Adult, male Sprague-Dawley rats (275-300 g) are surgically implanted with bipolar electrodes. Briefly, a bipolar electrode is stereoaxically implanted into the ventral hippocampus (AP −3.6, ML −4.9, VD −5.0 from dura, incisor bar +5.0) under ketamine-xylazine anesthesia. […]

The term ED50 denotes the dose at which the effect has come halfway, by size or by number of responders. A high value points to weaker potency. For `C[C@@H](Oc1cc(Cl)cc(C(F)(F)F)c1)C(N)=O` [I(D), (2R)-2-[3-chloro-5-(trifluoromethyl)-phenoxy]propanamide], the ED50 in data set [1] was determined as 22.7 mg/kg. In addition, the ED50 at 0.5 hour in data set [2] was above 500 mg/kg; in data set [3] it was above 170 mg/kg. Also, the “Average Seizure” value in data set [4] (20 mg/kg) came out at 4.9; in data set [4] (40 mg/kg), 2.5; in data set [4] (80 mg/kg), 1. Further, the “N/F, number of animals active over the number tested” value in data set [4] (20 mg/kg) is 1/8; in data set [4] (40 mg/kg), 1/8; in data set [4] (80 mg/kg), 5/8. Moreover, in data set [4], the “suppression of fully kindled (stage 5) seizures compared to vehicle controls” value was “dose related suppression”. For the same compound, the “EC50, reduction of seizure score (seizure severity)” value in data set [4] (hippocampal kindled rat, Example 8) was 49.4 ± 1.47 mg/kg.
In data set [1], `NC(=O)COc1cc(C(F)(F)F)cc(C(F)(F)F)c1` [I(F), 2-[3,5 bis(trifluoromethyl)-phenoxy]acetamide;] had an ED50 of 18.4 mg/kg. Besides, the values for the ED50 at 0.5 hour in data set [2] and in data set [3] were above 500 mg/kg and above 130 mg/kg, respectively. Besides, the “suppression of fully kindled (stage 5) seizures compared to vehicle controls” value in data set [4] was “dose related suppression”.
